Measured values: patent US7166597B2, “Fused pyrazole derivatives being protein kinase inhibitors” (Glaxo Group Limited, priority 2000, dated 2007)
Read-outs that look alike come from different tables or passages of the source.

How the values were obtained:
p38 kinase = molecular target: T1, p38 kinase (Homo sapiens, UniProt Q16539); test: p38 Kinase Assay; type: biochemical
T1 construct: GST (N); made in house; host or cells: E. coli
Method: The peptide substrate used in the p38 assay was biotin-IPTSPITTTYFFFRRR-amide. The p38 and MEK6 proteins were purified to homogeneity from E. coli expression systems. The fusion proteins were tagged at the N-terminus with Glutathione-S-Transferase (GST). The maximum activation was achieved by incubating 20 uL of a reaction mixture of 30 nM MEK6 protein and 120 nM p38 protein in the presence of 1.5 uM peptide and 10 mM Mg (CH3CO2)2 in 100 mM HEPES7 pH 7.5, added to 15 uL of a mixture of 1.5 uM ATP with 0.08 uCi [g-^33P]ATP, with or without 15 uL of inhibitor in 6% DMSO. The controls were reactions in the presence (negative controls) or absence (positive controls) of 50 mM EDTA. Reactions were allowed to proceed for 60 min at room temperature and quenched with addition of 50 uL of 250 mM EDTA and mixed with 150 uL of Streptavidin SPA beads (Amersham) to 0.5 mg/reaction. The Dynatech Microfluor white U-bottom plates were sealed and the beads were allowed to settle overnight. The plates were counted in a Packard TopCount for 60 seconds. IC50 values were obtained by fitting raw data to % I=100*(1−(I−C2)/(C1−C2)), where I was […], C1 was positive control, and C2 was negative control.

[1] = system: TNF release from human peripheral blood mononuclear cells (PBMNC); test: Cell Based Assay for Cytokines Production in PBMNC (TNF release after LPS); conditions: PBMC, read-out: TNF/PBMNC (inhibition of TNF release from human PBMNC following stimulation with LPS, IC50)
Method: Cell Based Assay for Cytokines Production in PBMNC
Human peripheral blood mononuclear cells were isolated from heparinized blood by LSM (Organon Teknika) from volunteer donors. Purified human peripheral blood mononuclear cells were then suspended at a concentration of 2×10^6 cells/ml in RPMI 1640 medium supplemented with 10% heat-inactivated FBS and 1% antibiotics. Aliquots of 100 μl (2×10^5 cells) were added to 96-well microliter plates. Test compounds at […] dose ranges (final-DMSO concentration in culture medium was 0.1%) were then added to the cells for 10–15 minutes before the addition of lipopolysaccharide (1 ng/ml). After incubation at 37° C. in a 5% CO2 incubator for 18–20 h, cell free supernatants were collected by centrifugation at 800 g. The supernatant was then assayed for the amount of TNFα and IL-1β by using Quantikine immunoassay kits developed by R&D Systems (Minneapolis, Minn.).

[2] = system: serum TNFα elevation in mice treated with lipopolysaccharide (LPS); test: Murine LPS-Stimulated Serum TNF Inhibition; type: in vivo; conditions: Mus musculus, 1.5 h, dose 30 mpk, read-out: % inh. (dose): % inhibition of murine TNF production in mice following an LPS challenge
Method: Murine LPS—Stimulated Serum TNF Inhibition Protocol
The potency of compounds of the invention as inhibitors of serum TNFα elevation in mice treated with lipopolysaccharide (LPS) was determined as follows; a) for subcutaneous (s.c.) administration, test compound was dissolved in DMSO and added to a mixture of 0.9% sodium chloride solution and 30% Trappsol HPB-20 (Cyclodextrin Technology Development Inc., Gainesville, Fla. USA) for a final DMSO concentration of 1%. The dosing solution was sonicated briefly and 0.2 mL was injected subcutaneously 10 min prior to LPS injection; b) for per oral (p.o.) administration, test compounds were formulated in 0.2 mL of PBS and 0.1% Tween 80 and given orally via gavage 10 min prior to LPS administration.
C3/hen female mice were injected intraperitoneally with 200 μg/kg LPS (Escherichia coil, Serotype 0111:B4, Sigma Chemical Co, St. Louis, Mo.) in PBS and sacrificed 90 min later by CO2 asphyxiation. Blood was immediately taken from the caudal vena cava and plasma prepared and frozen at −80° C. Plasma concentrations of TNF were measured by ELISA (Genzyme Co., Cambridge Mass.).

[3] = Cell Based Efficacy (MTT Assay), cytotoxicity toward HFF; conditions: human, HFF cells (human foreskin fibroblasts), Table 7, HFF cell line
Method: Cell Based Efficacy (MTT Assay)
The potency of compounds of the invention are tested for their ability to inhibit cell proliferation and cell viability. The metabolic conversion of 3-(4,5-dimethylthiazol-2-yl)-2,5-diphenyltetrazolium bromide (MTT, Sigma #M2128) to a reduced form was a commonly used measure of cellular viability. Following was the procedure:
Cells are maintained in 75 cm^2 tissue culture flasks until ready for use. The cells are grown and plated for the assay in Dulbecco's modified Eagle's media containing 10% fetal bovine serum. For example, the following cell lines can be used: a) human foreskin fibroblasts (HFF), b) HT29 (human colon carcinoma cell line), c) MDA-MB468 (human breast carcinoma cell line), d) RKO (human colon adenocarcinoma cell line), e) SW620 (human colon carcinoma cell line), f) A549 (human lung carcinoma cell line), and g) MIA PACA (human pancreatic carcinoma cell line). Cells are maintained at 37° C. in 10% CO2, 90% humidified air. Cells are plated in 96-well tissue culture plates at the densities listed below (Table 6). 100 μL of cell suspension was added to each well of the 96-well plate except the top row of the plate which contains no cells and serves as a reference for the spectrophotometer.
Cells are incubated overnight in Dulbecco's modified Eagle's media containing 10% fetal bovine serum at 37° C. in 10% CO2, 90% humidified air prior to dosing. Cells are dosed in 10 sequential 3-fold dilutions starting at 30 μM depending upon the solubility of the compound. Compounds with solubilities of less than 30 μM are dosed at the highest soluble concentration. Stock solutions of compounds are made in 100% dimethyl sulfoxide (DMSO). Stock solutions are diluted in Dulbecco's modified Eagle's media containing 100 ug/mL gentamicin and 0.3 to 0.6% DMSO at the twice the highest concentration to be placed on the cells. If compounds have been dissolved in DMSO the final concentration of DMSO on the cells was kept below 0.3%. 3-fold serial dilutions are performed on each compound to prepare 10 concentrations of the compound for dosing. 100 μL of diluted compound was added to the 100 μL of media currently on the dish. For each concentration of compound, 2–4 replicate wells are prepared.
Cells are returned to incubator and allowed to proliferate in the presence of compound for 72 h before addition of MTT. MTT was prepared in phosphate buffered saline (Irvine Scientific #9240) at a concentration of 2 mg/mL. 50 μL per well of MTT solution was added to the 200 μL of media to yield a final concentration of 0.4 mg/mL and plates are returned to the incubator for 4 h. After 4 h incubation the media, compound and MTT mixture was aspirated from the plates and 100 μL of 100% DMSO was added to each well in addition to 25 uL of Sorenson's Buffer (0.1M glycine, 0.1M NaCl, pH 10.5). Quantitation of metabolic reduction of MTT in each plate was performed by reading optical density at 570 nm wavelength on a Molecular Devices UV max microplate reader. Growth inhibition curves and 50% inhibitory concentrations are determined using Microsoft Excel.

[4] = molecular target: T2, JNK3 kinase (Jnk-3alpha-2) (Homo sapiens, UniProt P53779); test: JNK3 Kinase Assay; type: biochemical; conditions: Table 8; read-out: JNK3 kinase (inhibition of JNK3 kinase, IC50)
T2 construct: Jnk-3alpha-2 (as a truncated construct, residues 39 to 224) was expressed in E. coli as a GST fusion protein; Following purification the GST portion was removed by thrombin cleavage; fused on or other part: An N-terminal GST tag was used for expression and removed by thrombin cleavage before the assay
Method: JNK3 Kinase Assay Jnk-3alpha-2 (as a truncated construct, residues 39 to 224) was expressed in E. coli as a GST fusion protein. Following purification the GST portion was removed by thrombin cleavage. The enzyme was stored at −80° C. Substrate c-Jun was expressed as a GST fusion protein including a signal peptide (biotinylation site) in E. coli. Following purification the substrate was biotinylated on a specific lysine in the signal peptide using biotin ligase. Prior to assay Jnk-3 was pre-activated by incubation with MgATP. The enzyme (10 nM) was screened in 40 mM HEPES (pH 7.4), 150 mM NaCl, 20 mM glycerophosphate, 1 mM DTT, 0.2 mM vanadate, 200 nM biotin-c-Jun, 5 mM MgCl2 and 10 uM ATP. Inhibitors were added over a conc range of from 0 to 10 uM in DMSO (fc 3%). The reaction was stopped by the addition of 25 mM EDTA. Phospho-c-Jun was detected using homogeneous time resolved fluorescence (HTRF) with a Eu-labelled antiphosphoserine (Serine 73) and streptavidin APC.

[5] = Table 7, compounds wherein Z is CH, read-out: P38 kinase (inhibition of p38 kinase, IC50)
[6] = Table 8, compounds wherein Z is N, read-out: p38 kinase (inhibition of p38 kinase, IC50)

T2 sequence (P53779 39-402 limits assumed): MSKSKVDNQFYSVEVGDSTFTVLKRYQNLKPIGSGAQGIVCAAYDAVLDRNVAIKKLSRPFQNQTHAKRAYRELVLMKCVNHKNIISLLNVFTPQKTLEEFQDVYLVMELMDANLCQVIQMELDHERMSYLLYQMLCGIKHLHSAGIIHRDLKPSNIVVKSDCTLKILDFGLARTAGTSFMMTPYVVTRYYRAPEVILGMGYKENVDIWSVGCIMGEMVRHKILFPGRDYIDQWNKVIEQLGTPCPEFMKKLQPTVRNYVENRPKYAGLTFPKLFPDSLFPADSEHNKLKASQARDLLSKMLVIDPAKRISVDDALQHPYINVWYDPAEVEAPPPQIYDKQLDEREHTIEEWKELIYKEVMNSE
T1 sequence (Q16539 whole entry): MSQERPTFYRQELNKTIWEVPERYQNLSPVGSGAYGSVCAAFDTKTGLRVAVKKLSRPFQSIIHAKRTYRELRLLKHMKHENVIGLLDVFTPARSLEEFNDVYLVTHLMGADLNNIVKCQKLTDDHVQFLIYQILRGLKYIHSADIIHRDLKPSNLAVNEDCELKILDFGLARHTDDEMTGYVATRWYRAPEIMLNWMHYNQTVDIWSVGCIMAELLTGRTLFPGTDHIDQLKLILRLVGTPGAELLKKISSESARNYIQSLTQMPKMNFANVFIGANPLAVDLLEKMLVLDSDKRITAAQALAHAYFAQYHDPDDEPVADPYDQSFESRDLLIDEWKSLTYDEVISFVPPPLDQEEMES

Row | Structure (SMILES) | IC50 (p38 kinase; [5]) [nM] | IC50 ([1]; Table 7, LPS stimulation) [nM] | inhibition in vivo at 30 mg/kg ([2]; Table 7, LPS challenge) [%] | IC50 at 72 h [3] [nM] | IC50 (p38 kinase; [6]) [nM] | IC50 ([1]; Table 8, LPS stimulation) [nM] | inhibition in vivo at 30 mg/kg ([2]; Table 8, LPS challenge) [%] | IC50 [4] [nM]
1 | Fc1ccc(-c2nn3ccccc3c2-c2ccncc2)cc1 [Example 1, 2-(4-Fluorophenyl)-3-(4-pyridyl)-pyrazolo[1,5-a]pyridine] | < 500 | < 500 | 65 | > 50000 | – | – | – | –
2 | COc1ccn2nc(-c3ccc(F)cc3)c(-c3ccncc3)c2c1 [Example 5, 2-(4-Fluorophenyl)-5-methoxy-3-(4-pyridinyl)pyrazolo[1,5-a]pyridine] | 500 to 5000 | 500 to 5000 | 11 | – | – | – | – | –
3 | Nc1ncccc1C(=O)OCc1ccn2nc(-c3ccc(F)cc3)c(-c3ccncc3)c2c1 [Example 16, [2-(4-Fluorophenyl)-3-(4-pyridinyl)pyrazolo[1,5-a]pyridin-5-yl]methyl 2-aminonicotinate] | < 500 | < 500 | – | > 50000 | – | – | – | –
4 | Fc1ccc(-c2nn3ccccc3c2-c2ccnc(NCc3ccc(Cl)cc3)c2)cc1 [Example 31, N-(4-Chlorobenzyl)-4-[2-(4-fluorophenyl)pyrazolo[1,5-a]pyridin-3-yl]-2-pyridinamine] | – | < 500 | 42 | – | – | – | – | –
5 | Fc1ccc(-c2nn3ccccc3c2-c2ccnc(NCc3cccnc3)c2)cc1 [Example 37, 4-[2-(4-Fluorophenyl)pyrazolo[1,5-a]pyridin-3-yl]-N-(3-pyridinylmethyl)-2-pyridinamine] | < 500 | < 500 | – | 5000 to 50000 | – | – | – | –
6 | CSc1nccc(-c2c(-c3ccc(F)cc3)nn3ccccc23)n1 [Example 57, 2-(4-Fluorophenyl)-3-(4-(2-methylthio)pyrimidinyl)pyrazolo[1,5-a]-pyridine] | – | – | – | – | < 500 | < 500 | 56 | –
7 | CCCCNc1nccc(-c2c(-c3ccc(F)cc3)nn3ccccc23)n1 [Example 60, N-Butyl-4-[2-(4-fluorophenyl)pyrazolo[1,5-a]pyridin-3-yl]-2-pyrimidin-amine] | – | – | – | – | < 500 | < 500 | 88 | –
8 | Nc1nccc(-c2c(-c3ccc(F)cc3)nn3ccccc23)n1 [Example 64, 4-[2-(4-Fluorophenyl)pyrazolo[1,5-a]pyridin-3-yl]-2-pyrimidinamine] | – | – | – | – | < 500 | < 500 | 62 | –
9 | Fc1ccc(-c2nn3cc(C(F)(F)F)ccc3c2-c2ccnc(NC3CC3)n2)cc1 [Example 68, N-Cyclopropyl-4-[2-(4-fluorophenyl)-6-trifluoromethylpyrazolo[1,5-a]pyridin-3-yl]-2-pyrimidinamine] | – | – | – | – | < 500 | < 500 | 24 | < 500
10 | CC(C)Nc1nccc(-c2c(-c3ccc(F)cc3)nn3cc(C(F)(F)F)ccc23)n1 [Example 69, 4-[2-(4-Fluorophenyl)-6-trifluoromethylpyrazolo[1,5-a]pyridin-3-yl]-N-(2-propyl)-2-pyrimidinamine] | – | – | – | – | < 500 | < 500 | 45 | –
11 | N#Cc1ccc2c(-c3ccnc(NC4CC4)n3)c(-c3ccc(F)cc3)nn2c1 [Example 73, N-Cyclopropyl-4-[6-cyano-2-(4-fluorophenyl)pyrazolo[1,5-a]pyridin-3-yl]-2-pyrimidinamine] | – | – | – | – | < 500 | < 500 | 52 | < 500
12 | NC(=O)c1ccc2c(-c3ccnc(NC4CC4)n3)c(-c3ccc(F)cc3)nn2c1 [Example 75, 2-(4-Fluorophenyl)-3-(4-(2-cyclopropylamino)pyrimidinyl)-6-pyrazolo-[1,5-a]pyridinylcarboxamide] | – | – | – | – | – | < 500 | 90 | < 500
13 | Fc1ccc(-c2nn3ccccc3c2-c2ccnc(NCc3ccccn3)n2)cc1 [Example 82, 4-[2-(4-Fluorophenyl)pyrazolo[1,5-a]pyridin-3-yl]-N-(2-pyridinylmethyl)-2-pyrimidinamine] | – | – | – | – | < 500 | < 500 | 87 | –
